In patent US4335249A, “Herbicidal diphenyl ethers, sulfides, sulfoxides and sulfones” (Rohm and Haas Company, priority 1976, dated 1982):

Columns and labels:
Type in all cases: in vivo
[1] = system: wild oats (Avena fatua); assay: Preemergence herbicidal activity, wild oats; conditions: Pre
Summary of the method: (§1)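 Pre: flats treated immediately post-planting. Post: treated 2 wk after germination. Spray = acetone/water solution, 50 gal/acre carrier, rate in lb/A. Read ~2 wk after treatment as average % plants killed.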

[2] = system: barnyardgrass (Echinochloa crusgalli); assay: Postemergence herbicidal activity, barnyardgrass; conditions: Post
Summary of the method: (§2)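 Flats of soil-planted weed seeds were treated either right after sowing (preemergence) or two weeks after germination (postemergence). Application was a spray of acetone solution diluted in water, 50 gallons per acre carrier, dosed in lb/A.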

[3] = system: barnyardgrass (Echinochloa crusgalli); assay: Preemergence herbicidal activity, barnyardgrass; conditions: Pre
Summary of the method: as §2

[4] = system: foxtail (Setaria spp.); assay: Postemergence herbicidal activity, foxtail; conditions: Post
Summary of the method: as §1

[5] = system: wild oats (Avena fatua); assay: Postemergence herbicidal activity, wild oats; conditions: Post
Summary of the method: as §1

[6] = system: velvetleaf (Abutilon theophrasti); assay: Preemergence herbicidal activity, velvetleaf; conditions: Pre
Summary of the method: as §1

[7] = system: morningglory (Ipomoca spp.); assay: Postemergence herbicidal activity, morningglory; conditions: for % control, Morningglory: Post
Summary of the method: as §1

[8] = system: yellow nutsedge (Cyperus esculentus); assay: Postemergence herbicidal activity, yellow nutsedge
Summary of the method: as §1

[9] = system: morningglory (Ipomoca spp.); assay: Preemergence herbicidal activity, morningglory; conditions: for % control, Morningglory: Pre
Summary of the method: as §1

[10] = system: tomato (Lycopersicon esculentum); assay: Postemergence herbicidal activity, tomato; conditions: Post
Summary of the method: as §1

[11] = system: downybrome (Bromus tectorum); assay: Postemergence herbicidal activity, downybrome; conditions: Post
Summary of the method: as §1

[12] = system: foxtail (Setaria spp.); assay: Preemergence herbicidal activity, foxtail; conditions: Pre
Summary of the method: as §1

[13] = system: tomato (Lycopersicon esculentum); assay: Preemergence herbicidal activity, tomato; conditions: Pre
Summary of the method: as §1

[14] = system: cocklebur (Xanthium pensylvanicum); assay: Preemergence herbicidal activity, cocklebur
Summary of the method: as §1

[15] = system: marigold (Tagetes spp.); assay: Postemergence herbicidal activity, marigold; conditions: for % control, Marigold: Post
Summary of the method: as §1

[16] = system: downybrome (Bromus tectorum); assay: Preemergence herbicidal activity, downybrome; conditions: Pre
Summary of the method: as §1

[17] = system: velvetleaf (Abutilon theophrasti); assay: Postemergence herbicidal activity, velvetleaf; conditions: for % control, Velvetleaf: Post
Summary of the method: as §2

[18] = system: marigold (Tagetes spp.); assay: Preemergence herbicidal activity, marigold
Summary of the method: as §1

[19] = system: cocklebur (Xanthium pensylvanicum); assay: Postemergence herbicidal activity, cocklebur; conditions: for % control, Cocklebur: Post
Summary of the method: as §1

[20] = system: yellow nutsedge (Cyperus esculentus); assay: Preemergence herbicidal activity, yellow nutsedge
Summary of the method: as §1

[21] = Echinochloa crus-galli, post-emergence, 336 h, 2 lb/A
[22] = Echinochloa crus-galli, pre-emergence, 336 h, 2 lb/A
[23] = Setaria, post-emergence, 336 h, 2 lb/A
[24] = Abutilon theophrasti, pre-emergence, 336 h, 2 lb/A
[25] = Cyperus, post-emergence, 336 h, 2 lb/A
[26] = Setaria, pre-emergence, 336 h, 2 lb/A
[27] = Solanum lycopersicum, pre-emergence, 336 h, 2 lb/A
[28] = Xanthium strumarium, pre-emergence, 336 h, 2 lb/A
[29] = Cyperus, pre-emergence, 336 h, 2 lb/A

In the case of `CCOC(=O)C(C)Oc1ccc([S+]([O-])c2cccc(C(F)(F)F)c2)cc1` (centres unmarked) [Example 50], the pest or weed control at 4483.4 g/ha ([1]; Avena fatua, pre-emergence, 336 h, 4 lb/A, read-out: % control, Wild oat) is reported as 0%, the pest or weed control at 4483.4 g/ha ([2]; Echinochloa crus-galli, post-emergence, 336 h, 4 lb/A) is reported as 20% and the pest or weed control at 4483.4 g/ha ([3]; Echinochloa crus-galli, pre-emergence, 336 h, 4 lb/A) is reported as 0%. It also gave a pest or weed control at 4483.4 g/ha ([4]; Setaria, post-emergence, 336 h, 4 lb/A) of 0%, a pest or weed control at 4483.4 g/ha ([5]; Avena fatua, post-emergence, 336 h, 4 lb/A, read-out: % control, Wild oat) of 20% and a pest or weed control at 4483.4 g/ha ([6]; Abutilon theophrasti, pre-emergence, 336 h, 4 lb/A) of 0%. For the same molecule, the pest or weed control at 4483.4 g/ha ([7]; Ipomoea, post-emergence, 336 h, 4 lb/A) was 0%, the pest or weed control at 4483.4 g/ha ([8]; Cyperus, post-emergence, 336 h, 4 lb/A) was 0% and the pest or weed control at 4483.4 g/ha ([9]; Ipomoea, pre-emergence, 336 h, 4 lb/A) was 0%. It also gave a pest or weed control at 4483.4 g/ha ([10]; Solanum lycopersicum, post-emergence, 336 h, 4 lb/A) of 20%, a pest or weed control at 4483.4 g/ha ([11]; Bromus tectorum, post-emergence, 336 h, 4 lb/A) of 0% and a pest or weed control at 4483.4 g/ha ([12]; Setaria, pre-emergence, 336 h, 4 lb/A) of 0%. The pest or weed control at 4483.4 g/ha ([13]; Solanum lycopersicum, pre-emergence, 336 h, 4 lb/A) was 0%, the pest or weed control at 4483.4 g/ha ([14]; Xanthium strumarium, pre-emergence, 336 h, 4 lb/A) was 0% and the pest or weed control at 4483.4 g/ha ([15]; post-emergence, 336 h, 4 lb/A) was 0%. For the same molecule, the pest or weed control at 4483.4 g/ha ([16]; Bromus tectorum, pre-emergence, 336 h, 4 lb/A) was 0%, the pest or weed control at 4483.4 g/ha ([17]; Abutilon theophrasti, post-emergence, 336 h, 4 lb/A) was 0% and the pest or weed control at 4483.4 g/ha ([18]; pre-emergence, 336 h, 4 lb/A) was 0%. It also gave a pest or weed control at 4483.4 g/ha ([19]; Xanthium strumarium, post-emergence, 336 h, 4 lb/A) of 0% and a pest or weed control at 4483.4 g/ha ([20]; Cyperus, pre-emergence, 336 h, 4 lb/A) of 0%.

`CC(Oc1ccc(Oc2ccc(C(F)(F)F)cc2Cl)cc1)C(=O)O` (centres unmarked) [Example 12] was tested, and the “% control, Wild oat” value ([1]; 2 lb/A) was 60%, the “% control, Barnyardgrass” value ([2]; 2 lb/A) was 100% and the “% control, Barnyardgrass” value ([3]; 2 lb/A) was 100%. The “% control, Foxtail” value ([4]; 2 lb/A) was 100%, the “% control, Wild oat” value ([5]; 2 lb/A) was 70% and the “% control, Velvetleaf” value ([6]; 2 lb/A) was 0%. For the same molecule, the “% control, Morningglory” value ([7]; 2 lb/A) was 0%, the “% control, Nutsedge” value ([8]; Post, 2 lb/A) was 0% and the “% control, Morningglory” value ([9]; 2 lb/A) was 0%. The “% control, Tomato” value ([10]; 2 lb/A) was 0%, the “% control, Downybrome” value ([11]; 2 lb/A) was 60% and the “% control, Foxtail” value ([12]; 2 lb/A) was 100%. The “% control, Tomato” value ([13]; 2 lb/A) was 0%, the “% control, Cocklebur” value ([14]; Pre, 2 lb/A) was 0% and the “% control, Marigold” value ([15]; 2 lb/A) was 0%. The “% control, Downybrome” value ([16]; 2 lb/A) was 0%, the “% control, Velvetleaf” value ([17]; 2 lb/A) was 0% and the “% control, Marigold” value ([18]; Pre, 2 lb/A) was 0%. For the same molecule, the “% control, Cocklebur” value ([19]; 2 lb/A) was 0% and the “% control, Nutsedge” value ([20]; Pre, 2 lb/A) was 0%.

For `CC(Oc1ccc(Oc2ccc(C(F)(F)F)cc2Cl)cc1)C(=O)OC(C)(C)C` (centres unmarked) [Example 35], the pest or weed control at 2241.7 g/ha ([1]; Avena fatua, pre-emergence, 336 h, 2 lb/A, read-out: % control, Wild oat) was 0%, the pest or weed control at 2241.7 g/ha [2, 21] was 60% and the pest or weed control at 2241.7 g/ha [3, 22] was 99%. For the same molecule, the pest or weed control at 2241.7 g/ha [4, 23] was 100%, the pest or weed control at 2241.7 g/ha ([5]; Avena fatua, post-emergence, 336 h, 2 lb/A, read-out: % control, Wild oat) was 0% and the pest or weed control at 2241.7 g/ha [6, 24] was 0%. It also gave a pest or weed control at 2241.7 g/ha ([7]; Ipomoea, post-emergence, 336 h, 2 lb/A) of 0%, a pest or weed control at 2241.7 g/ha [8, 25] of 0% and a pest or weed control at 2241.7 g/ha ([9]; Ipomoea, pre-emergence, 336 h, 2 lb/A) of 0%. The pest or weed control at 2241.7 g/ha ([10]; Solanum lycopersicum, post-emergence, 336 h, 2 lb/A) was 0%, the pest or weed control at 2241.7 g/ha ([11]; Bromus tectorum, post-emergence, 336 h, 2 lb/A) was 0% and the pest or weed control at 2241.7 g/ha [12, 26] was 100%. It also gave a pest or weed control at 2241.7 g/ha [13, 27] of 0%, a pest or weed control at 2241.7 g/ha [14, 28] of 0% and a pest or weed control at 2241.7 g/ha ([15]; post-emergence, 336 h, 2 lb/A) of 0%. It also gave a pest or weed control at 2241.7 g/ha ([16]; Bromus tectorum, pre-emergence, 336 h, 2 lb/A) of 0%, a pest or weed control at 2241.7 g/ha ([17]; Abutilon theophrasti, post-emergence, 336 h, 2 lb/A) of 0% and a pest or weed control at 2241.7 g/ha ([18]; pre-emergence, 336 h, 2 lb/A) of 0%. For the same molecule, the pest or weed control at 2241.7 g/ha ([19]; Xanthium strumarium, post-emergence, 336 h, 2 lb/A) was 0% and the pest or weed control at 2241.7 g/ha [20, 29] was 0%.

For `CC(Oc1ccc(Oc2ccc(C(F)(F)F)cc2Cl)cc1)C(=O)O` (centres unmarked) [Example 6, 2-[4-(2-Chloro-4-trifluoromethylphenoxy)phenoxy] propionic acid], the “% control, Wild oat” value ([1]; 2 lb/A) was 20%, the pest or weed control at 2241.7 g/ha [2, 21] was 100% and the pest or weed control at 2241.7 g/ha [3, 22] was 100%. For the same molecule, the pest or weed control at 2241.7 g/ha [4, 23] was 95%, the “% control, Wild oat” value ([5]; 2 lb/A) was 95% and the pest or weed control at 2241.7 g/ha [6, 24] was 0%. The “% control, Morningglory” value ([7]; 2 lb/A) was 40%, the pest or weed control at 2241.7 g/ha [8, 25] was 0% and the “% control, Morningglory” value ([9]; 2 lb/A) was 0%. For the same molecule, the “% control, Tomato” value ([10]; 2 lb/A) was 80%, the “% control, Downybrome” value ([11]; 2 lb/A) was 30% and the pest or weed control at 2241.7 g/ha [12, 26] was 100%. For the same molecule, the pest or weed control at 2241.7 g/ha [13, 27] was 0%, the pest or weed control at 2241.7 g/ha [14, 28] was 0% and the “% control, Marigold” value ([15]; 2 lb/A) was 20%. For the same molecule, the “% control, Downybrome” value ([16]; 2 lb/A) was 40%, the “% control, Velvetleaf” value ([17]; 2 lb/A) was 20% and the pest or weed control at 2241.7 g/ha ([18]; pre-emergence, 336 h, 2 lb/A) was 0%. The “% control, Cocklebur” value ([19]; 2 lb/A) was 50% and the pest or weed control at 2241.7 g/ha [20, 29] was 0%.
